Experimental data taken from ChEMBL document CHEMBL4411312, “Design, Synthesis, and Biological Evaluation of New 1-(Aryl-1 H-pyrrolyl)(phenyl)methyl-1 H-imidazole Derivatives as Antiprotozoal Agents” (J Med Chem, 2019).
Calls of active or inactive are those of the source. The calls are words filed in the database; no cut-off is given here.

How the values were obtained:
[1] = system: Trypanosoma brucei rhodesiense; experiment: Antiprotozoal activity against Trypanosoma brucei rhodesiense STIB900 trypomastigotes after 72 hrs by Alamar Blue dye-based fluorometric analysis; format: functional, organism-based; conditions: STIB900, 72 h
[2] = system: Plasmodium falciparum; experiment: Antiprotozoal activity against erythrocytic stage of Plasmodium falciparum K1 after 48 hrs by [3H]- hypoxanthine incorporation assay; format: functional, organism-based
[3] = Selectivity index, ratio of CC50 for rat L6 cels to IC50 for Leishmania donovani MHOM/ET/67/L82 axenic amastigote; format: toxicity; conditions: L6 cells, read-out: Ratio IC50
[4] = system: Trypanosoma cruzi; experiment: Potency index, ratio of benznidazole IC50 to compound IC50 for Trypanosoma cruzi Tulahuen C2C4 amastigotes infected in rat L6 cells after 96 hrs by inverted microscopic analysis; format: functional
[5] = Selectivity index, ratio of CC50 for rat L6 cels to IC50 for erythrocytic stage of Plasmodium falciparum K1; format: toxicity; conditions: L6 cells, read-out: Ratio IC50
[6] = system: Trypanosoma cruzi; experiment: Antiprotozoal activity against Trypanosoma cruzi Tulahuen C2C4 amastigotes infected in rat L6 cells after 96 hrs by inverted microscopic analysis; format: functional, organism-based; conditions: Tulahuen C2C4, L6, 96 h
[7] = system: Leishmania donovani; experiment: Antiprotozoal activity against Leishmania donovani MHOM/ET/67/L82 axenic amastigote after 72 hrs by inverted microscopic analysis; format: functional, organism-based; conditions: MHOM/ET/67/L82, 72 h
[8] = Cytotoxicity against rat L6 cels assessed as reduction in cell viability after 72 hrs by Alamar Blue dye-based fluorometric analysis; conditions: L6 cells
[9] = Selectivity index, ratio of CC50 for rat L6 cels to IC50 for Trypanosoma brucei rhodesiense STIB900 trypomastigotes; format: toxicity; conditions: L6 cells, read-out: Ratio IC50
[10] = target: Sterol 14-alpha demethylase (Trypanosoma cruzi (strain CL Brener)) (UniProt Q7Z1V1); experiment: Binding affinity to Trypanosoma cruzi CYP51 at 5 to 10 uM by UV-vis spectrophotometry
Sequence of Sterol 14-alpha demethylase (Trypanosoma cruzi (strain CL Brener)) (Q7Z1V1 whole entry, looked up): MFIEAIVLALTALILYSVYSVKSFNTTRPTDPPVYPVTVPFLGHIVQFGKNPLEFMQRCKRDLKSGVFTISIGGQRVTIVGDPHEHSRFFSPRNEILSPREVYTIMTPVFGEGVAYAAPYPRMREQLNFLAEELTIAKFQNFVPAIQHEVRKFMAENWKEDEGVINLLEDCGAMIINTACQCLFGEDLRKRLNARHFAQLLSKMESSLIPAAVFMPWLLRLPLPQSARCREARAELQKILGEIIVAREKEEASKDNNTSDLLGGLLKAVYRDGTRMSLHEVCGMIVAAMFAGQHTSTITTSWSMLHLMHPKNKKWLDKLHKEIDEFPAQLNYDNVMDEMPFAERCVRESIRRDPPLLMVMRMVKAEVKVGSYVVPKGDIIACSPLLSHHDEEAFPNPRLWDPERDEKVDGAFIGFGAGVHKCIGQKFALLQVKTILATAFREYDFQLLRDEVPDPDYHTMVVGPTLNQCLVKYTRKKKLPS

SMILES	IC50 [1] [µM]	IC50 [2] [µM]	IC50 [6] [µM]	IC50 [7] [µM]	Activity [10]	selectivity ratio [3]	Ratio IC50 [4]	selectivity ratio [5]	CC50 at 72 h [8] [µM]	selectivity ratio [9]
Clc1ccc(C(c2c[nH]cc2-c2ccc(Cl)cc2-c2ccccc2)n2ccnc2)c(Cl)c1 (stereo not given)	29	0.096	0.142	13.9	–	1	4 - 12	149	14.3	–
Clc1ccc(C(c2c[nH]cc2-c2ccc(Cl)cc2-c2cccs2)n2ccnc2)c(Cl)c1 (stereo not given)	8.31	0.27	0.027	2.78	–	2	61	18	4.93	–
CCCCCCCCCCCCCCCCOP(=O)([O-])OCC[N+](C)(C)C [MILTEFOSINE]	–	–	–	–	–	245	–	–	137	–
Clc1ccc(C(c2c[nH]cc2-c2ccc(Cl)cc2-n2cccc2)n2ccnc2)c(Cl)c1 (stereo not given)	11.9	4.53	12	10.8	–	–	–	2	7.67	–
Clc1ccc(-c2c[nH]cc2[C@H](c2ccc(Cl)cc2Cl)n2ccnc2)cc1	9.21	0.092	0.0009	–	–	–	–	28	2.56	–
Nc1nc(N)nc(Nc2ccc([As]3SCC(CO)S3)cc2)n1 (stereo not given) [MELARSOPROL]	–	–	–	–	–	–	–	–	28.9	3280
Clc1ccc(-c2c[nH]cc2[C@@H](c2ccc(Cl)cc2Cl)n2ccnc2)cc1	12.2	0.11	0.017	5.02	–	1	–	51	5.56	–
C[C@@H]1CC[C@H]2[C@@H](C)C(=O)O[C@@H]3O[C@@]4(C)CC[C@@H]1[C@]32OO4 [ARTEMISININ]	–	0.007	–	–	–	–	–	> 50000	> 350	–
Clc1ccc(C(c2c[nH]cc2-c2ccc(Cl)c3ccccc23)n2ccnc2)c(Cl)c1 (stereo not given)	16.5	0.33	0.048	4.83	–	1	–	15	4.9	–
O=C(Cn1ccnc1[N+](=O)[O-])NCc1ccccc1 [BENZNIDAZOLE]	–	–	–	–	–	–	–	–	> 385	–
CCN(CC)CCCC(C)Nc1ccnc2cc(Cl)ccc12 (stereo not given) [CHLOROQUINE]	–	–	–	–	–	–	–	–	92.8	–

Further lines, with some results ahead:

IC50 [1] [µM]	IC50 [2] [µM]	IC50 [6] [µM]	IC50 [7] [µM]	Activity [10]	SMILES	selectivity ratio [3]	Ratio IC50 [4]	selectivity ratio [5]	CC50 at 72 h [8] [µM]	selectivity ratio [9]
40.6	4.57	6.18	25.2	–	O=[N+]([O-])c1ccc(-n2ccc(C(c3ccc(Cl)cc3)n3ccnc3)c2)cc1 (stereo not given)	3	–	18	82.4	2
33	1.3	0.029	10.2	–	CS(=O)(=O)c1ccc(-c2c[nH]cc2C(c2ccc(Cl)cc2Cl)n2ccnc2)cc1 (stereo not given)	7	57	52	68	2
14.5	4.99	10.2	31.1	–	O=[N+]([O-])c1ccc(-n2ccc(C(c3ccccc3)n3ccnc3)c2)cc1 (stereo not given)	2	–	12	60.4	4
35.7	2.18	3.9	30.4	–	N#Cc1ccc(C(c2ccn(-c3ccc(Cl)cc3)c2)n2ccnc2)cc1 (stereo not given)	1	–	19	42.4	1
31.1	1.81	> 74.7	21.3	–	FC(F)(F)c1ccc(-n2ccc(C(c3ccc(Cl)cc3)n3ccnc3)c2)cc1 (stereo not given)	2	–	22	40.1	1
34.4	0.059	0.203	15	–	Clc1ccc(C(c2c[nH]cc2-c2ccc(Cl)cc2-c2ccccc2)n2ccnc2)cc1 (stereo not given)	–	4 - 12	253	14.9	–
18.8	0.29	0.05	5.64	–	Cc1ccc(-c2c[nH]cc2C(c2ccc(Cl)cc2Cl)n2ccnc2)cc1 (stereo not given)	3	57	63	18.4	–
27.8	4.09	–	84.4	–	N#Cc1ccc(C(c2ccn(-c3ccc(C#N)cc3)c2)n2ccnc2)cc1 (stereo not given)	2	–	34	139	5
11.8	2.33	3.6	17.7	–	O=[N+]([O-])c1ccc(C(c2ccn(-c3ccc([N+](=O)[O-])cc3)c2)n2ccnc2)cc1 (stereo not given)	9	–	68	159	13
28.4	0.46	0.05	5.51	–	COc1ccc(-c2c[nH]cc2C(c2ccc(Cl)cc2Cl)n2ccnc2)cc1 (stereo not given)	3	57	32	14.8	–
24.2	0.28	0.066	5.22	–	CC(C)c1ccc(-c2c[nH]cc2C(c2ccc(Cl)cc2Cl)n2ccnc2)cc1 (stereo not given)	2	57	45	12.7	–
–	–	0.043	–	–	CSc1ccc(-c2c[nH]cc2C(c2ccc(Cl)cc2Cl)n2ccnc2)cc1 (stereo not given)	–	57	–	–	–
15.6	0.34	0.018	6.41	Active	Clc1ccc(C(c2c[nH]cc2-c2ccc3ccccc3c2)n2ccnc2)c(Cl)c1 (stereo not given)	1	–	19	6.54	–
22.5	0.3	0.066	4.87	–	CCc1ccc(-c2c[nH]cc2C(c2ccc(Cl)cc2Cl)n2ccnc2)cc1 (stereo not given)	3	57	45	13.3	–
